Assay results taken from patent publication US5491216A, “Tri-arginine insulins” (Eli Lilly and Company, priority 1993, dated 1996).

Tests used:
[1] = tested on: New Zealand White rabbits; experiment: Hypoglycemic activity after subcutaneous injection in fasted rabbits (blood glucose, percent of original); assay type: in vivo, rabbit; details: for Percent of Original Blood Glucose: added zinc 0 mg/ml, 0.2 U/kg s.c., 40 U/ml, n = 10 rabbits
Protocol: Solutions were prepared containing various amounts of zinc (0-2.4 mg/ml) in the form of zinc chloride. Glacial acetic acid was used to solublize each of the solutions at a final pH range of pH 4-6.
New Zealand White rabbits, mostly female, all weighing 0 2.7-4 kg, 0.5-4 years of age and fasted 16 hours prior to administration of sample were used for testing.
At various times, 100 μl volumes of blood were obtained from the marginal ear veins, mixed with 900 μl volumes of anticoagulant (EDTA-sodium fluoride) and analyzed for glucose content. The glucose values were standardized to reflect percent of original blood glucose measured prior to sample injection.

[2] = standardized value used in the formula for test solutions; cited from earlier work

| Substance | Percent of Original Blood Glucose ([1]; 1 hour after injection) [%] | Percent of Original Blood Glucose ([1]; 2 hours after injection) [%] | Percent of Original Blood Glucose ([1]; 4 hours after injection) [%] | Percent of Original Blood Glucose ([1]; 6 hours after injection) [%] | hypoglycemic activity ([1]; result in words, animal model) | standardized value (potency per mg protein) [2] [U/mg] |
| --- | --- | --- | --- | --- | --- | --- |
| Des(64) HPI: split(64) proinsulin wherein Lys-64 is removed | 63.1 | 70.5 | 90.6 | 90.0 | hypoglycemic activity of its own | – |
| human insulin: natural human insulin, reference for biopotency | – | – | – | – | – | 28.85 |
